According to patent US11739074B2, “Ras inhibitors” (Revolution Medicines, Inc., priority 2019, dated 2023):
Read-outs that look alike come from different tables or passages of the source.

Experiments:
KRAS G12S = KRAS G12S (Homo sapiens, UniProt P01116+P62937, G12S); assay: Ras-Raf disruption/FRET/MOA assay, KRAS G12S; assay type: biochemical
Text: (§1) Disruption of B-Raf Ras-Binding Domain (BRAF^RBD) Interaction with K-Ras by Compounds of the Invention (Also Called a FRET Assay or an MOA Assay)
(§2) Note—The following protocol describes a procedure for monitoring disruption of K-Ras G12C (GMP-PNP) binding to BRAF^RBD by a compound of the invention. This protocol may also be executed substituting other Ras proteins or nucleotides, such as K-Ras G12D and K-Ras G13D.
(§3) The purpose of this biochemical assay was to measure the ability of test compounds to facilitate ternary complex formation between a nucleotide-loaded K-Ras isoform and Cyclophilin A; the resulting ternary complex disrupts binding to a BRAF^RBD construct, inhibiting K-Ras signaling through a RAF effector.
(§4) In assay buffer containing 25 mM HEPES pH 7.3, 0.002% Tween20, 0.1% BSA, 100 mM NaCl and 5 mM MgCl2, tagless Cyclophilin A, His6-K-Ras-GMPPNP, and GST-BRAF^RBD were combined in a 384-well assay plate at final concentrations of 25 μM, 12.5 nM, and 50 nM, respectively. Compound was present in plate wells as a 10-point 3-fold dilution series starting at a final concentration of 30 μM. After incubation at 25° C. for 3 hours, a mixture of anti-His Eu-W1024 and anti-GST allophycocyanin was then added to assay sample wells at final concentrations of 10 nM and 50 nM, respectively, and the reaction incubated for an additional 1.5 hours. […] Compounds that facilitate disruption of a K-Ras:RAF complex were identified as those eliciting a decrease in the TR-FRET ratio relative to DMSO control wells.

KRAS G13D = KRAS G13D (Homo sapiens, UniProt P01116+P62937, G13D); assay: Ras-Raf disruption/FRET/MOA assay, KRAS G13D; assay type: biochemical
Text: as §1, §2, §3, §4

AsPC-1 (K-Ras G12D) [1] = assay: Potency assay: pERK in AsPC-1 cells; assay type: cell-based; conditions: Homo sapiens
KRAS G12C = KRAS G12C (Homo sapiens, UniProt P01116+P62937, G12C); assay: Ras-Raf disruption/FRET/MOA assay, KRAS G12C; assay type: biochemical
Text: as §1, §2, §3, §4

KRAS G12V = KRAS G12V (Homo sapiens, UniProt P01116+P62937, G12V); assay: Ras-Raf disruption/FRET/MOA assay, KRAS G12V; assay type: biochemical
Text: as §1, §2, §3, §4

KRAS G13C = KRAS G13C (Homo sapiens, UniProt P01116+P62937, G13C); assay: Ras-Raf disruption/FRET/MOA assay, KRAS G13C; assay type: biochemical
Text: as §1, §2, §3, §4

KRAS WT = KRAS WT (Homo sapiens, UniProt P01116+P62937); assay: Ras-Raf disruption/FRET/MOA assay, KRAS WT; assay type: biochemical
Text: as §1, §2, §3, §4

NRAS G12C = target: T1, NRAS G12C (Homo sapiens, UniProt P01111+P62937, G12C); assay: Ras-Raf disruption/FRET/MOA assay, NRAS G12C; assay type: biochemical
T1 construct: His6
Text: as §1, §2, §3, §4

AsPC-1 (K-Ras G12D) [2] = assay: CellTiter-Glo cell viability assay, AsPC-1; assay type: cell-based; conditions: Homo sapiens, ASPC1, 120 h
Method in brief: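 Direct compound addition to plated cells; 5-day exposure; ~30 min RT equilibration; CellTiter-Glo luminescence. Normalization: (sample/avg DMSO)*100; 4-parameter logistic curve fit.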

KRAS G12D = KRAS G12D (Homo sapiens, UniProt P01116+P62937, G12D); assay: Ras-Raf disruption/FRET/MOA assay, KRAS G12D; assay type: biochemical
Text: as §1, §2, §3, §4

[3] = disruption of BRAF RBD binding, with Cyclophilin A, read-out: KRAS G12S FRET IC50
[4] = disruption of BRAF RBD binding, with Cyclophilin A, read-out: KRAS G13D FRET IC50
[5] = disruption of BRAF RBD binding, with Cyclophilin A, read-out: KRAS G12C FRET IC50
[6] = disruption of BRAF RBD binding, with Cyclophilin A, read-out: KRAS G12V FRET IC50
[7] = disruption of BRAF RBD binding, with Cyclophilin A, read-out: KRAS G13C FRET IC50
[8] = disruption of BRAF RBD binding, with Cyclophilin A, read-out: KRAS WT FRET IC50
[9] = NRAS G12C, read-out: NRAS G12C FRET data IC50
[10] = AsPC-1, K-Ras G12D, 5-day treatment, read-out: AsPC-1 Cell Viability IC50
[11] = disruption of BRAF RBD binding, with Cyclophilin A, read-out: KRAS G12D FRET IC50
[12] = ASPC1, read-out: pERK EC50 (AsPC-1 KRAS G12D)
[13] = NRAS G12C FRET data IC50, NRAS G12C
[14] = read-out: AsPC-1 Cell Viability IC50, AsPC-1, K-Ras G12D, 5-day treatment

Sequence of KRAS G12V (P01116 1-169 isoform P01116-2 G12V limits assumed): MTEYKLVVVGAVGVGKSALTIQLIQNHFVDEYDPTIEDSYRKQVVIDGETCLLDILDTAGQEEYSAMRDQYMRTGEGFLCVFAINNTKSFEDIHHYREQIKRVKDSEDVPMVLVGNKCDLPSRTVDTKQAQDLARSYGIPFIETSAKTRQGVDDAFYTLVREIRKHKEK
Sequence of KRAS G12V (P62937 whole entry): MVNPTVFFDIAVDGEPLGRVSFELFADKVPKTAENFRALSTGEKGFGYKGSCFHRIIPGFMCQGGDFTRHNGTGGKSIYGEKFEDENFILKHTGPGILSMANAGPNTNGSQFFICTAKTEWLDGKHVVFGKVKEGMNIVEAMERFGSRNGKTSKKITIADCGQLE
Sequence of KRAS G12C (P01116 1-169 isoform P01116-2 G12C limits assumed): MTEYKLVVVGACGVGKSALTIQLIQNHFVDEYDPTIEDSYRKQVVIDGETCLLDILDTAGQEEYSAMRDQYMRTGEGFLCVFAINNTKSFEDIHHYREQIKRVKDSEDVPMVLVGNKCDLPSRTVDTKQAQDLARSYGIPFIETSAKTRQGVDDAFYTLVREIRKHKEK
Sequence of KRAS G12C (P62937 whole entry): as the sequence (P62937 whole entry) above
Sequence of KRAS G13C (P01116 1-169 isoform P01116-2 G13C limits assumed): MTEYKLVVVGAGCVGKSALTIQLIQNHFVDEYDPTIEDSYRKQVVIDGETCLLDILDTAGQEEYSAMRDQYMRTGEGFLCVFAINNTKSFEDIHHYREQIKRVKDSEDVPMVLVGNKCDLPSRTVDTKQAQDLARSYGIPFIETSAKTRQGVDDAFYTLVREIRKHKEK
Sequence of KRAS G13C (P62937 whole entry): as the sequence (P62937 whole entry) above
T1 sequence (P01111 whole entry G12C): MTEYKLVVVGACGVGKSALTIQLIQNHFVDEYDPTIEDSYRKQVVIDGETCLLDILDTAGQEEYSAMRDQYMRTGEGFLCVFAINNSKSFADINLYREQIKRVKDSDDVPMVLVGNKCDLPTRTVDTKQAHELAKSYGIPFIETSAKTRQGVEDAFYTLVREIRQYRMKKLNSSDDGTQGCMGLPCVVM
T1 sequence (P62937 whole entry): as the sequence (P62937 whole entry) above
Sequence of KRAS WT (P01116 1-169 isoform P01116-2 limits assumed): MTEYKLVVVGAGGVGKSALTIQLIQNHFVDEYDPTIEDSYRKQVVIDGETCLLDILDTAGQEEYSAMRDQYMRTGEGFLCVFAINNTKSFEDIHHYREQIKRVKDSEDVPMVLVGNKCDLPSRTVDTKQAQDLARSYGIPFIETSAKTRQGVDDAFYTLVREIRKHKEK
Sequence of KRAS WT (P62937 whole entry): as the sequence (P62937 whole entry) above
Sequence of KRAS G12S (P01116 1-169 isoform P01116-2 G12S limits assumed): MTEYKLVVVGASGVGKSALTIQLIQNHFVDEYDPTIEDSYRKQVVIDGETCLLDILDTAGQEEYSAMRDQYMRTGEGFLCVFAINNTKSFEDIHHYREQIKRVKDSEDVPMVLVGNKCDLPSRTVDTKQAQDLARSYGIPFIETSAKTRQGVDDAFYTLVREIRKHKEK
Sequence of KRAS G12S (P62937 whole entry, the tested form may be a part): as the sequence (P62937 whole entry) above
Sequence of KRAS G13D (P01116 1-169 isoform P01116-2 G13D limits assumed): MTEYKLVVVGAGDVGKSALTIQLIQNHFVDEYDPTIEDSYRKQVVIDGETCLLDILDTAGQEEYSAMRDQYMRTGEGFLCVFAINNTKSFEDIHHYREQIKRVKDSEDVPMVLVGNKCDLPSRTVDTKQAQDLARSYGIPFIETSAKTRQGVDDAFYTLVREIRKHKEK
Sequence of KRAS G13D (P62937 whole entry): as the sequence (P62937 whole entry) above
Sequence of KRAS G12D (P01116 1-169 isoform P01116-2 G12D limits assumed): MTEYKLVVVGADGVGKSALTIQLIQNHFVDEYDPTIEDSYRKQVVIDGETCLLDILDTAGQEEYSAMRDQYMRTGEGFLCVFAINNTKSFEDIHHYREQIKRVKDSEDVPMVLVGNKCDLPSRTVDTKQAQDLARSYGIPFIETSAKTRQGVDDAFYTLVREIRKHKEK
Sequence of KRAS G12D (P62937 whole entry): as the sequence (P62937 whole entry) above

| SMILES | IC50 (KRAS G12S; [3]) | IC50 (KRAS G13D; [4]) | IC50 (KRAS G12C; [5]) | IC50 (KRAS G12V; [6]) | IC50 (KRAS G13C; [7]) | IC50 (KRAS WT; [8]) | IC50 (NRAS G12C; [9]) | IC50 (AsPC-1 (K-Ras G12D) [2]; [10]) | IC50 (KRAS G12D; [11]) | also measured |
| --- | --- | --- | --- | --- | --- | --- | --- | --- | --- | --- |
| CCn1c(-c2cnccc2COC)c2c3cc(ccc31)-c1cc(O)cc(c1)C[C@H](NC(=O)[C@H](C(C)C)N(C)C(=O)[C@H]1CCN(C(=O)N3C[C@@H]3C(=O)OC)C1)C(=O)N1CCC[C@H](N1)C(=O)OCC(C)(C)C2 [Compound 94] | 0.1 to 1 µM | 0.1 to 1 µM | 0.01 to 0.1 µM | 0.1 to 1 µM | 0.01 to 0.1 µM | 0.1 to 1 µM | 0.1 to 1 µM | > 10 µM | 1 to 10 µM | EC50 (AsPC-1 (K-Ras G12D) [1]; ASPC1, AsPC-1 cells, K-Ras G12D, read-out: pERK EC50 (AsPC-1 KRAS G12D)): < 5 µM |
| CCn1c(-c2cnccc2COC)c2c3cc(ccc31)-c1cc(O)cc(c1)C[C@H](NC(=O)[C@H](C(C)C)N(C)C(=O)CN(C)C(=O)[C@@H]1[C@H](C3CC3)N1[S@@+]([O-])C(C)(C)C)C(=O)N1CCC[C@H](N1)C(=O)OCC(C)(C)C2 (stereo partly drawn) [Compound 101] | 0.1 to 1 µM | 0.1 to 1 µM | 0.01 to 0.1 µM | 0.1 to 1 µM | 0.1 to 1 µM | 0.1 to 1 µM | 0.01 to 0.1 µM |  | 0.1 to 1 µM | EC50 (AsPC-1 (K-Ras G12D) [1]; [12]): < 5 µM; IC50 (AsPC-1 (K-Ras G12D) [2]; read-out: AsPC-1 Cell Viability IC50): 1 to 10 µM |
| CCn1c(-c2cnccc2COC)c2c3cc(ccc31)-c1cc(O)cc(c1)C[C@H](NC(=O)[C@H](C(C)C)N(C)C(=O)CN(C)C(=O)[C@@H]1N[C@@H]1c1ccccc1)C(=O)N1CCC[C@H](N1)C(=O)OCC(C)(C)C2 [Compound 110] |  |  |  |  |  |  |  |  |  | IC50 (KRAS G12S): 0.01 to 0.1 µM; IC50 (KRAS G13D): 0.1 to 1 µM; EC50 (AsPC-1 (K-Ras G12D) [1]; [12]): < 5 µM; IC50 (KRAS G12C): 0.01 to 0.1 µM; IC50 (KRAS G12V): 0.1 to 1 µM; IC50 (KRAS G13C): 0.1 to 1 µM; IC50 (KRAS WT): 0.01 to 0.1 µM; IC50 (NRAS G12C; [13]): 0.01 to 0.1 µM; IC50 (AsPC-1 (K-Ras G12D) [2]; [14]): 1 to 10 µM; IC50 (KRAS G12D): 0.1 to 1 µM |
| CCn1c(-c2cnccc2COC)c2c3cc(ccc31)-c1cc(O)cc(c1)C[C@H](NC(=O)[C@H](C(C)C)N(C)C(=O)CN(C)C(=O)[C@H]1N[C@H]1c1ccccc1)C(=O)N1CCC[C@H](N1)C(=O)OCC(C)(C)C2 [Compound 116] |  |  |  |  |  |  |  |  |  | IC50 (KRAS G12S): 0.1 to 1 µM; IC50 (KRAS G13D): 0.1 to 1 µM; IC50 (KRAS G12C): 0.1 to 1 µM; IC50 (KRAS G12V): 0.1 to 1 µM; IC50 (KRAS G13C): 0.1 to 1 µM; IC50 (KRAS WT): 0.01 to 0.1 µM; IC50 (NRAS G12C; [13]): 0.1 to 1 µM; IC50 (AsPC-1 (K-Ras G12D) [2]; [14]): > 10 µM; IC50 (KRAS G12D): 1 to 10 µM |
| CCn1c(-c2cccnc2[C@H](C)OC)c2c3cc(ccc31)-c1cccc(c1)C[C@H](NC(=O)[C@H](C(C)C)N1CC[C@H](CN=C=NCCOC)C1)C(=O)N1CCC[C@H](N1)C(=O)OCC(C)(C)C2 [Compound 122] | 1 to 10 µM | > 10 µM | 0.1 to 1 µM | 1 to 10 µM | 0.1 to 1 µM | 1 to 10 µM | 0.1 to 1 µM | 1 to 10 µM | 1 to 10 µM |  |
| CCn1c(-c2cccnc2[C@H](C)OC)c2c3cc(ccc31)-c1cc(O)cc(c1)C[C@H](NC(=O)[C@H](C(C)C)N1CCC3(CCN(C(=O)[C@@H]4CN4)CC3)C1=O)C(=O)N1CCC[C@H](N1)C(=O)OCC(C)(C)C2 [Compound 195] | 0.1 to 1 µM | 0.01 to 0.1 µM | 0.01 to 0.1 µM | 0.1 to 1 µM | < 0.01 µM | 0.01 to 0.1 µM | 0.01 to 0.1 µM | > 10 µM | 1 to 10 µM |  |
| CCn1c(-c2cnccc2COC)c2c3cc(ccc31)-c1cc(O)cc(c1)C[C@H](NC(=O)[C@H](C(C)C)N(C)C(=O)CN1C(=O)[C@@H]3[C@H](C1=O)N3Cc1ccccc1)C(=O)N1CCC[C@H](N1)C(=O)OCC(C)(C)C2 (stereo partly drawn) [Example 55, (2S)-2-(2-((1R,5S)-6-benzyl-2,4-dioxo-3,6-diazabicyclo[3.1.0]hexan-3-yl)-N-methylacetamido)-N-((6^3S,4S)-1^1-ethyl-2^5-hydroxy-1^2-(4-(methoxymethyl)pyridin-3-yl)-10,10-dimethyl-5,7-dioxo-6^1,6^2,6^3,6^4,6^5,6^6-hexahydro-1^1H-8-oxa-1(5,3)-indola-6(1,3)-pyridazina-2(1,3)-benzenacycloundecaphane-4-yl)-3-methylbutanamide] | 0.1 to 1 µM | 1 to 10 µM | 0.1 to 1 µM | 0.1 to 1 µM | 0.1 to 1 µM | 1 to 10 µM | 0.1 to 1 µM | > 10 µM | > 10 µM |  |
